{"source": "patent US12144824B2", "about": "“Method for enhancing embryo implantation” (The Flinders University of South Australia, priority 2018, dated 2024)", "key": {"[1]": {"test_system": "VEGF production, human Ishikawa endometrial adenocarcinoma cell line", "assay": "VEGF production by Ishikawa cells exposed to copper or zinc chloride solutions (multiplex immunoassay)", "format": "cell-based", "description": "Medium was refreshed every 48 hours. Cells were subcultured using 0.25% trypsin/EDTA (Invitrogen)."}, "[2]": {"test_system": "LIF production, human Ishikawa endometrial adenocarcinoma cell line", "experimental": "(§1) The human Ishikawa endometrial adenocarcinoma cell line (Sigma-Aldrich; St Louis, MO, United States of America) was used to model the endometrium's response to copper and zinc metal ions (Cu^2+ and Zn^2+). Cells were grown in T75 flasks (Nalge Nunc International, Rochester, NY, United States of America) in Ishikawa medium, consisting of αMEM (Sigma-Aldrich) supplemented with 5% foetal bovine serum (Invitrogen Corp, Carlsbad, CA, United States of America), 2 mM glutamine (Sigma-Aldrich) and 1% non-essential amino acids (Sigma-Aldrich) without antibiotics at 37° C. under a gas atmosphere of 5% CO2 in air. Medium was refreshed every 48 hours. Cells were subcultured using 0.25% trypsin/EDTA (Invitrogen). For metal ion exposure experiments, cells were seeded onto 2-well chamber slides (Ibidi, Martinsried, Germany). After the endometrial cells had attached and reached 80-90% confluence they were then exposed to copper and zinc metal ions using two approaches (salt solution or metal implant) as described below.\n(§2) Copper or zinc chloride (Sigma-Aldrich) was dissolved in Ishikawa medium to produce salt solutions at various concentrations in the range of 0.2 μM and 200 μM, before being applied to Ishikawa cells seeded into 2-well chamber slides for a period of 8 hours. Following the 8 hours exposure, culture media were removed, centrifuged at 1000 g for 10 minutes at 4° C. to pellet any cellular debris, and then the supernatants were stored in Eppendorf tubes at −80° C. Subsequently, the supernatants were assayed for both LIF and VEGF content using a multiplex immunoassay system (elisakit.com, Scoresby, VIC, Australia)."}, "[3]": {"test_system": "LIF production, human Ishikawa endometrial adenocarcinoma cell line", "assay": "LIF production by Ishikawa cells exposed to copper or zinc chloride solutions (multiplex immunoassay)", "experimental": "as §1, §2"}, "murine day 3 embryos": {"test_system": "murine day 3 embryos", "assay": "Mouse embryo development and blastocyst outgrowth assay on fibronectin-coated plates", "format": "cell-based", "conditions": "short term exposure", "description": "Ishikawa cells were seeded onto 2-well chamber slides in Ishikawa medium until they reached 80-90% confluence. Then, 5 minutes prior to exposure to metal implants, the medium was changed to G2 embryo culture medium, and the Ishikawa cells exposed to copper, zinc or copper-zinc bimetal implants for either 2 or 5 minutes duration (or remained unexposed (control)), and the resulting G2 culture media collected 8 hours later.\nTo determine whether metal ions were capable of enhancing embryo implantation, post-compaction mouse embryos were exposed to the “conditioned media” prior to undergoing outgrowth assays. In particular, pronucleate oocytes were collected from superovulated female F1 mice ˜21-22 hours post-hCG. Following cumulus cell removal, oocytes were cultured in 20 μl drops (10 embryos/drop) of G1 medium under paraffin oil (Vitrolife) at 37° C. in 6% CO2, 5% O2 and 89% N2. After 48 hours, compacting and morulae stage embryos were randomly transferred to culture in either (i) control G2 medium (Vitrolife) that had not been exposed to Ishikawa cells; (ii) individual culture in 2 μl of control, Ishikawa exposed G2; or (iii) individual culture in 2 μl drops of 2 minute copper-zinc bimetal implant exposed G2 medium. After 48 hours, the capacity of blastocysts to undergo outgrowth was assessed in the following manner. […] All images were collected and analysed at matching magnification."}}, "data": [{"smiles": "[Cl][Cu][Cl]", "note": "[CuCl2, copper chloride]", "values": [{"measurement": "concentration of peak VEGF production", "setting": "[1]; 8 hours exposure", "value": 100, "unit": "µM"}, {"measurement": "concentration producing a significant increase in VEGF production", "setting": "[1]; 8 hours exposure", "value": "above 20 μM"}, {"measurement": "lowest amount confirmed to elicit an increase in endometrial VEGF", "setting": "[1]; Example 1", "value": 20, "unit": "µM"}, {"measurement": "concentration exceeding which a relative decline in endometrial VEGF production was observed", "setting": "[1]; in vitro", "value": "exceeding 100 μM"}, {"measurement": "toxicity in relation to LIF production", "setting": "[2]", "value": "No toxicity"}, {"measurement": "increase in endometrial LIF production", "setting": "[3]; CuCl2 200 μM", "value": 4, "unit": "fold"}, {"measurement": "LIF production increase above baseline", "setting": "[3]; CuCl2 200 μM, 8 hours", "value": 420, "unit": "%"}, {"measurement": "lowest amount confirmed to elicit an increase in endometrial LIF", "setting": "[3]; Example 1", "value": 20, "unit": "µM"}, {"measurement": "concentration producing a significant increase in LIF production", "setting": "[3]; salt solution in Ishikawa medium, 8 hours exposure", "value": "exceeding 2 μM"}]}, {"smiles": "[Cl-].[Cl-].[Zn+2]", "note": "[ZnCl2, zinc chloride]", "values": [{"measurement": "concentration from which VEGF production appeared reduced", "setting": "[1]; 8 hours exposure", "value": "≥ 150", "unit": "µM"}, {"measurement": "increase in VEGF compared to controls", "setting": "[1]; 8 hours exposure", "value": "no significant increase"}, {"measurement": "dose above which toxicity, with a reduction in LIF production, was observed", "setting": "[3]; 8 hours exposure", "value": "exceeding 150 μM"}]}, {"smiles": "[Cu+2]", "note": "[copper ions]", "values": [{"measurement": "toxicity to pre-implantation embryo development", "setting": "murine day 3 embryos", "value": "not significant"}]}, {"smiles": "[Zn+2]", "note": "[zinc ions]", "values": [{"measurement": "toxicity to pre-implantation embryo development", "setting": "murine day 3 embryos", "value": "not significant"}]}]}
